The conditions of data set [1]: for vapor or sublimation pressure: Liquid.
Data set [2] can be described thus: refractive index (Na D-line) (dimensionless). Particulars: 293.2 K; 101.33 kPa; Liquid; Standard Abbe refractometry.

Numbers after ± are expanded uncertainties.

In the case of `O=C1C=CC(=O)O1` [maleic anhydride], the Normal melting temperature in data set [1] (Crystal, visual observation) was determined as 52.5 ± 0.5 °C.

The term vapor or sublimation pressure denotes the pressure of vapour in equilibrium with the condensed phase. In general, refractive index refers to the speed of light in vacuum divided by its phase velocity in the sample. With `COC(=O)c1ccccc1C(=O)OC` [dimethyl 1,2-benzenedicarboxylate], the “vapor or sublimation pressure” value is on record as 0.934 ± 0.12 kPa in data set [1] (417.59 K); 1.466 ± 0.13 kPa in data set [1] (425.4 K); 2.21 ± 0.13 kPa in data set [1] (435.12 K); 3.356 ± 0.13 kPa in data set [1] (444.5 K); 5.164 ± 0.13 kPa in data set [1] (454.9 K); 7.823 ± 0.14 kPa in data set [1] (466.01 K). Moreover, the “vapor or sublimation pressure” value was 11.13 ± 0.14 kPa in data set [1] (475.82 K); 15.42 ± 0.15 kPa in data set [1] (486.11 K); 20.93 ± 0.15 kPa in data set [1] (496.11 K); 28.7 ± 0.17 kPa in data set [1] (506.87 K); 38.16 ± 0.18 kPa in data set [1] (516.84 K); 48.71 ± 0.2 kPa in data set [1] (525.54 K). Besides, the refractive index in data set [2] was found to be 1.516 ± 0.001.

For the origin of these results see the NIST ThermoML archive (doi:10.1016/j.fluid.2006.06.013).
